Data published in patent US11370769B2, “TRPC5 inhibitors and methods of using same” (BOARD OF REGENTS OF THE UNIVERSITY OF NEBRASKA, priority 2017, dated 2022).

Assays:
TRPC5 = target: T1, TRPC5 (Homo sapiens, UniProt Q9UL62); assay: HEK293 whole-cell patch clamp recording, TRPC5 inhibition assay; format: cell-based; settings: for IC50: dose response, whole cell patch clamp, HEK cells expressing TRPC5, Rilu (3 μM)
T1 construct: expressed in transfected cells; host or cells: HEK293
T1 sequence (Q9UL62 1-973): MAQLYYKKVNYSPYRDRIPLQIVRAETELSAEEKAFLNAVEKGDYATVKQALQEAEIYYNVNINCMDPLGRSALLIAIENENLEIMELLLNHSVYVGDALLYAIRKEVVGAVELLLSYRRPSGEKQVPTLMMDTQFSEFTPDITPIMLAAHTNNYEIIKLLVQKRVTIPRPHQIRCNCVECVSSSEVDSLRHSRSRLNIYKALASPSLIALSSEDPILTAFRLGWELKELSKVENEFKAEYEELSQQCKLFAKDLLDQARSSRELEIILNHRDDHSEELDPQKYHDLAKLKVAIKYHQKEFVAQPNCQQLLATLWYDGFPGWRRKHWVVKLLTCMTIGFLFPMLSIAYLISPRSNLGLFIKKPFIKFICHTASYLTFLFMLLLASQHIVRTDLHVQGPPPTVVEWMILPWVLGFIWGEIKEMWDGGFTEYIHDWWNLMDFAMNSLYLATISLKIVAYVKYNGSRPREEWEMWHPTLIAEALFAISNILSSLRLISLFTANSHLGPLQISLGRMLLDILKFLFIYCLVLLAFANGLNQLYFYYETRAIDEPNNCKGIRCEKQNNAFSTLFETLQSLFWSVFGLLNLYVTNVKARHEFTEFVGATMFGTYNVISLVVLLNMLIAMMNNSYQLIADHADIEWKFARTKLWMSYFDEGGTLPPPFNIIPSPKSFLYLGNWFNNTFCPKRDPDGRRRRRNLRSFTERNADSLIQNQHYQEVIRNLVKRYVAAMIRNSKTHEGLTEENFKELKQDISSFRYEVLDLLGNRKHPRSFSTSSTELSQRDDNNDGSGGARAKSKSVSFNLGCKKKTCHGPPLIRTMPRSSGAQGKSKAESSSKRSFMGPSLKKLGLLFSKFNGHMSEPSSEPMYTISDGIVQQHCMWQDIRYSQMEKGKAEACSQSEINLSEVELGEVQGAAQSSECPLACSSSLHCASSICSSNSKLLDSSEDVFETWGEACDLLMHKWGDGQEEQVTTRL
Protocol: TRPC4, TRPC5, and TRPC6 inhibition assay: HEK293 whole-cell recordings Whole-cell patch clamp recording was performed 16 h after transfection. The bath solution contained (in mM): 140 NaCl, 5 KCl, 10 HEPES, 2 MgCl2, 2 CaCl2, 10 glucose with pH7.4 adjusted with NaOH. The intracellular solution contained (in mM): 140 KCl, 5 EGTA, 10 HEPES, 2 MgCl2 with pH7.4 adjusted with KOH. The patch pipettes were made using a two-step-protocol (P-97, Sutter Instrument). The pipette resistance was maintained between 4 to 8 MΩ. Once the whole-cell configuration was achieved, cells were clamped at a holding potential of −60 mV, and given a 50 ms ramp stimulation from −100 mV to +100 mV in every 5 s. All currents were filtered at 2 KHz (Axopatch 200B amplifier, Axon Instruments, Union City, Calif.) and digitized at 10 KHz for whole-cell recordings using Axon pCLAMP 10.4. Data were then analyzed using Clampfit 10.4 (Molecular Devices).
HEK293 cell culture and transfection: Transfection of HEK293 cells was carried out using Plus reagent (Invitrogen) and Lipofectamine (Invitrogen) according to standard protocols. For heterologous expression of TRP channels in HEK293 cells, 1 μg of TRPC5-GFP, TRPC6-GFP or TRPC4-GFP plasmids were used to transfect HEK293 cells in a 3.5 cm petri dish where cells were allowed to grow to 80% confluence. Electrophysiology was carried out after 16 h incubation.

caAT1R podocytes = assay: ROS assay in caAT1R expressing podocytes; format: cell-based, mouse; settings: 30 μM ML204, 30 μM AC1903 or 50 μM NSC23677 for 36 hours
Protocol: Podocyte culture and viral transduction: Immortalized mouse podocytes were cultured as previously described (10, 11). Podocyte viral transduction was performed using lentivirus as previously described (10, 11). Briefly, lentivirus production was carried out in HEK293T cells at 60% confluence, and viral particles were collected two days after transfection and purified by centrifugation at 1,000 rcf for 5 min. Purified lentivirus was frozen at −80° C. until further use. Podocytes were transduced with lentivirus after 7 days of differentiation, and assays were performed 5 days after viral transduction.
For experiments in FIG. 4B/C, pCDNA3.1 AT1AR-Δ324 (rat AT1R NM_030985.4) containing HA tag (Plasmid #45635, Addgene) underwent site directed mutagenesis (Agilent) to generate the N111S substitution. For FIG. 4B, differentiated podocytes were transduced with the AT1A-N111S/Δ324 construct in six-well plates. Six days after viral transduction, cells were treated with either vehicle, 30 μM ML204, 30 μM AC1903 or 50 μM NSC23677 for 36 hours. Intracellular production of ROS was measured using a cell-permeable fluorescent dye, 5-(and-6)-chloromethyl-2′,7′-dichlorodihydrofluorescein diacetate, acetyl ester (CM-H2DCFDA, Molecular Probes). Cells were incubated with 5 μM CM-H2DCFDA at 37° C. for 45 min in Hanks' balanced salt solution (HBSS). Cells were then collected, resuspended in HBSS, stained with propidium iodide and the fluorescence intensity was assessed by flow cytometry using MACSQuant Analyzer (Miltenyi Biotec, Bergisch Gladbach, Germany). Living cells, which were PI negative, were selected by FACS gating and the fluorescence of CM-H2DCFDA was recorded on the FL-1 channel (525 nm). For FIG. 4C, differentiated podocytes were transduced with the AT1A-N111S/Δ324 construct in 96 well plates. Six days after transduction, the cells were treated with either vehicle, 30 μM ML204, 30 μM AC1903 or 50 μM NSC23677 for 36 hours. […]

c1ccc(Cn2c(NCc3ccco3)nc3ccccc32)cc1 [AC1903]
block of riluzole-activated TRPC5 whole-cell current (TRPC5; 30 μM, HEK cells expressing TRPC5): blocked
IC50 (TRPC5): 14.7 µM
caAT1R-induced ROS generation (caAT1R podocytes): blocked caAT1R-induced ROS generation

Cc1cc(N2CCCCC2)nc2ccccc12 [ML204, reference compound]
IC50 (TRPC5): 13.6 µM
caAT1R-induced ROS generation (caAT1R podocytes): blocked caAT1R-induced ROS generation
